What was measured:
[1] = system: SARS-CoV-2 strain BA.1; type: cell-based
[2] = system: SARS-CoV-2 strain XBB.1.5; type: cell-based
[3] = in vitro; conditions: human, microsomes, pH 7.4
[4] = target: SARS-CoV-2 M^Pro (Severe acute respiratory syndrome coronavirus 2, UniProt P0DTD1); type: biochemical; conditions: 20 nM M^Pro, 30 min preincubation, 10 μM Sub3
[5] = in vitro; conditions: human

Row | SMILES | IC50 [4] [µM] | other results
1 | C[C@@H](OC(C)(C)C)[C@H](NC(=O)OCc1cccc(OCCCCCCOc2cccc3c2C(=O)N(C2CCC(=O)NC2=O)C3=O)c1)C(=O)N[C@@H](CC1CCCCC1)C(=O)N[C@H](C=O)C[C@@H]1CCNC1=O (some centres unmarked) [MPD2] | – | reduction of viral production [1]: 90%; reduction of viral production [2]: 90%; CLint scaled [3]: 36.3 ± 2.51 mL/min/kg; CLint scaled at 1 h, 5 µM [3]: 36.2 mL/min/kg
2 | C[C@@H](OC(C)(C)C)[C@H](NC(=O)OCc1cccc(OCCCCCCCCOc2cccc3c2C(=O)N(C2CCC(=O)NC2=O)C3=O)c1)C(=O)N[C@@H](CC1CCCCC1)C(=O)N[C@H](C=O)C[C@@H]1CCNC1=O (some centres unmarked) [MPD3] | – | CLint scaled [3]: 24.7 ± 0.5 mL/min/kg
3 | C[C@@H](OC(C)(C)C)[C@H](NC(=O)OCc1cn(CCOCCOCCOCCC(=O)N(C)CCN(C)c2cccc3c2C(=O)N(C2CCC(=O)NC2=O)C3=O)nn1)C(=O)N[C@@H](CC1CCCCC1)C(=O)N[C@H](C=O)C[C@@H]1CCNC1=O (some centres unmarked) [MPD6] | 0.111 | –
4 | C[C@@H](OC(C)(C)C)[C@H](NC(=O)OCc1ccccc1)C(=O)N[C@@H](CC1CCCCC1)C(=O)N[C@H](C=O)C[C@@H]1CCNC1=O [MPI8, reference compound] | – | CC50 at 48 h [5]: 70 µM
5 | CC(C)(COCCCCCCOc1cccc2c1C(=O)N(C1CCC(=O)NC1=O)C2=O)NC(=O)N[C@H](C(=O)N1C[C@H]2[C@@H]([C@H]1C(=O)N[C@H](C=O)C[C@@H]1CCNC1=O)C2(C)C)C(C)(C)C (some centres unmarked) [MPD7] | 0.035 | –
6 | CC(C)(CCOCCCCCCOc1cccc2c1C(=O)N(C1CCC(=O)NC1=O)C2=O)NC(=O)N[C@H](C(=O)N1C[C@H]2[C@@H]([C@H]1C(=O)N[C@H](C=O)C[C@@H]1CCNC1=O)C2(C)C)C(C)(C)C (some centres unmarked) [MPD8] | 0.024 | –
7 | C[C@@H](OC(C)(C)C)[C@H](NC(=O)OCc1cccc(OCCCCCCN(C)CCN(C)c2cccc3c2C(=O)N(C2CCC(=O)NC2=O)C3=O)c1)C(=O)N[C@@H](CC1CCCCC1)C(=O)N[C@H](C=O)C[C@@H]1CCNC1=O (some centres unmarked) [MPD4] | 0.036 | –
8 | C[C@@H](OC(C)(C)C)[C@H](NC(=O)OCc1cn(CCOCCOCCOCCC(=O)Nc2cccc3c2C(=O)N(C2CCC(=O)NC2=O)C3=O)nn1)C(=O)N[C@@H](CC1CCCCC1)C(=O)N[C@H](C=O)C[C@@H]1CCNC1=O (some centres unmarked) [MPD5] | 0.036 | –
9 | CC(C)(CCC(=O)NCCCC(=O)Nc1cccc2c1C(=O)N(C1CCC(=O)NC1=O)C2=O)NC(=O)N[C@H](C(=O)N1C[C@H]2[C@@H]([C@H]1C(=O)N[C@H](C=O)C[C@@H]1CCNC1=O)C2(C)C)C(C)(C)C (some centres unmarked) [MPD10] | 0.149 | –
10 | C[C@@H](OC(C)(C)C)[C@H](NC(=O)OCc1cccc(OCCCCOc2cccc3c2C(=O)N(C2CCC(=O)NC2=O)C3=O)c1)C(=O)N[C@@H](CC1CCCCC1)C(=O)N[C@H](C=O)C[C@@H]1CCNC1=O (some centres unmarked) [MPD1] | – | CLint scaled [3]: 149 ± 12.7 mL/min/kg
11 | CN(CCN(C)c1cccc2c1C(=O)N(C1CCC(=O)NC1=O)C2=O)C(=O)CCC(C)(C)NC(=O)N[C@H](C(=O)N1C[C@H]2[C@@H]([C@H]1C(=O)N[C@H](C=O)C[C@@H]1CCNC1=O)C2(C)C)C(C)(C)C (some centres unmarked) [MPD9] | 0.031 | –
